Assay results: patent US20210205340A1, “COMPOSITIONS COMPRISING SIALYLATED OLIGOSACCHARIDES FOR USE IN INFANTS OR YOUNG CHILDREN TO PREVENT LATER IN LIFE OBESITY OR RELATED COMORBIDITIES AND PROMOTE A HEALTHY GROWTH” (NESTEC S.A., priority 2016, published 2021)
Entries after “also recorded” stand apart in the source; their conditions may differ.

System: NCI-H716 cells
Experiment: Calcium assay: activation of NCI-H716 cells by sialylated oligosaccharides (change in fluorescence ratio from intracellular calcium increase)
Type: cell-based, human
Details: for significance of the increase in fluorescence ratio / concentration dependence of calcium response / activation of NCI-H716 cells / fluorescence ratio (intracellular calcium response): NCI-H716 cells; for significance of the increase in fluorescence ratio: 5 mg/mL, 10 mg/mL and 20 mg/mL, p<0.05 vs Negative control, two-sided t-test; for concentration dependence of calcium response / activation of NCI-H716 cells: 1-20 mg/mL, FIG. 1 / FIG. 3; for fluorescence ratio (intracellular calcium response): all the tested concentrations (1 mg/mL, 5 mg/mL, 10 mg/mL and 20 mg/mL), vs buffer negative control; for intracellular calcium release: in vitro system with endocrine intestinal cells, indicator of potential GLP-1 secretagogue capacity
Excerpt: NCI-H716 is a cell line derived from human L-cells, the enteroendocrine cells that secrete GLP-1, and it is often used as a model of GLP-1 secretion. Unstimulated NCI-H716 cells secrete a basal level of GLP-1 and activation of the cells leads to dose-dependent increase in GLP-1 secretion. Activation of the NCI-H716 cells and subsequent release of GLP-1 can be triggered by nutrients such as palmitic acid, oleic acid, and meat hydrolysate, Gastrin Releasing Peptide (GRP), the cholinergic molecule Carbachol, bitter compounds such as denatonium, ginsenosides and other molecules.
Activation of NCI-H716 cells by ionomycin, GRP, denatonium, or ginsenosides leads to increased intracellular calcium. Elevation of intracellular calcium is therefore a marker of cell activation and in NCI-H716 cells it could be considered as an indicator of GLP-1 release.
A calcium assay was used to determine if NCI-H716 cells respond to human milk oligosaccharides (sialylated oligosaccharides) or components/precursors thereof (lactose and sialic acid). In this assay, cultured NCI-H716 cells were loaded with a fluorescent calcium sensitive dye then stimulated with the HMOs. The response to the stimulus was measured by change in fluorescence ratio in consequence of intracellular calcium increase. The tested HMOs were 3′-sialyllactose (3SL) and 6′-sialyllactose (6SL). They were tested individually.
GRP (Gastrin Releasing Peptide): positive control
Tested HMOs concentrations: 1 mg/mL, 5 mg/mL, 10 mg/mL and 20 mg/mL
Tested lactose and sialic acid concentrations: 5.5 mg/mL and 4.72 mg/mL respectively (correspond to the amounts contained in 10 mg/mL of 3SL, in order to make a suitable comparison with 10 mg/mL of 3SL)

Compound	specificity of the calcium response (3SL 10 mg/mL compared with its components lactose and sialic acid, FIG. 2)	significance of the increase in fluorescence ratio	concentration dependence of calcium response / activation of NCI-H716 cells	fluorescence ratio (intracellular calcium response)	intracellular calcium release	activation of NCI-H716 cells (calcium response) (lactose 5.5 mg/mL (amount contained in 10 mg/mL of 3SL), FIG. 2)	activation of NCI-H716 cells (calcium response) (sialic acid 4.72 mg/mL (amount contained in 10 mg/mL of 3SL), FIG. 2)
CC(=O)N[C@H]1[C@H]([C@H](O)[C@H](O)CO)O[C@@](O[C@H]2[C@@H](O)[C@@H](CO)O[C@@H](O[C@H]3[C@H](O)[C@@H](O)C(O)O[C@@H]3CO)[C@@H]2O)(C(=O)O)C[C@@H]1O (stereo partly drawn) [3SL, (6R)-5-Acetamido-3,5-dideoxy-6-[(1R,2R)-1,2,3-trihydroxypropyl]-β-L-threo-hex-2-ulopyranonosyl-(2->3)β-D-galactopyranosyl-(1->4)-D-glucopyranose]	specific	significant	clear concentration dependent calcium response; also recorded: dose dependent activation	enhanced	increased intracellular calcium release		
CC(=O)N[C@H]1[C@H]([C@H](O)[C@H](O)CO)O[C@@](OC[C@H]2O[C@@H](O[C@H]3[C@H](O)[C@@H](O)C(O)O[C@@H]3CO)[C@H](O)[C@@H](O)[C@H]2O)(C(=O)O)C[C@@H]1O (stereo partly drawn) [6SL, (6R)-5-Acetamido-3,5-dideoxy-6-[(1R,2R)-1,2,3-trihydroxypropyl]-β-L-threo-hex-2-ulopyranonosyl-(2->6)β-D-galactopyranosyl-(1->4)-D-glucopyranose]		significant	clear concentration dependent calcium response; also recorded: dose dependent activation	enhanced	increased intracellular calcium release		
OC[C@H]1O[C@@H](O[C@H]2[C@H](O)[C@@H](O)C(O)O[C@@H]2CO)[C@H](O)[C@@H](O)[C@H]1O (some centres unmarked) [Lactose, lactose, reference compound]						did not activate the cells	
CC(=O)N[C@H]1[C@H]([C@H](O)[C@H](O)CO)OC(O)(C(=O)O)C[C@@H]1O (some centres unmarked) [sialic acid, N-acetylneuraminic acid, reference compound]							did not activate the cells
